From patent US9156877B2, “17-hydroxy-17-pentafluorethyl-estra-4,9(10)-dien-11-benzylidene derivatives, methods for the production thereof and use thereof for treating diseases” (Bayer Intellectual Property GmbH, priority 2009, dated 2015)
≈ marks a conversion by molar mass, not a printed value.

Legend:
pregnant rats = test: Abortion test on female rats; assay type: in vivo, rat; settings: d5-d7 p.c., autopsy d9 p.c.
Protocol: Abortion Test on Female Rats
The action of progesterone and of the progesterone receptor is a fundamental precondition for successful pregnancy or gestation in mammals. The progesterone-antagonistic action of the inventive compounds was tested on pregnant rats (6 rats per group) on days 5 to 7 post coitum under conventional housing and feeding conditions.
After successful mating, the pregnant animals (presence of sperm in the vaginal smear on day 1 of pregnancy=d1 p.c.) were randomized and divided into the treatment group and the control group. The animals then each received subcutaneously or orally 0.15; 0.5; 1.5 or 5 mg/kg of the test compound or 1.0 ml/kg of vehicle (benzyl benzoate/castor oil: 1+4 [v/v]) daily from day 5 to day 7 (d5-d7 p.c.).
Autopsy was conducted on day 9 (d9 p.c.). As a characteristic of progesterone receptor-antagonistic action, the uterus was examined for the presence of nidation sites. Complete absence, or else the presence of pathological, haemorrhagic or otherwise abnormal nidation sites, on day 9 (d9 p.c.) was considered as abortion.

[1] = biological target: T1, human progesterone receptor A (Homo sapiens, UniProt P06401); test: Progesterone receptor-antagonistic action in stably transfected SK-N-MC cells with MMTV-LUC reporter (PR-A); assay type: cell-based; settings: antagonistic potency against 0.1 nmol/l promegestone, 24 hours, luciferase
T1 construct: expressed in transfected cells; host or cells: SK-N-MC human neuroblastoma cells, stably transfected with pRChPR-A-neo and pMMTV-LUC
T1 sequence (P06401 1-769 isoform P06401-2): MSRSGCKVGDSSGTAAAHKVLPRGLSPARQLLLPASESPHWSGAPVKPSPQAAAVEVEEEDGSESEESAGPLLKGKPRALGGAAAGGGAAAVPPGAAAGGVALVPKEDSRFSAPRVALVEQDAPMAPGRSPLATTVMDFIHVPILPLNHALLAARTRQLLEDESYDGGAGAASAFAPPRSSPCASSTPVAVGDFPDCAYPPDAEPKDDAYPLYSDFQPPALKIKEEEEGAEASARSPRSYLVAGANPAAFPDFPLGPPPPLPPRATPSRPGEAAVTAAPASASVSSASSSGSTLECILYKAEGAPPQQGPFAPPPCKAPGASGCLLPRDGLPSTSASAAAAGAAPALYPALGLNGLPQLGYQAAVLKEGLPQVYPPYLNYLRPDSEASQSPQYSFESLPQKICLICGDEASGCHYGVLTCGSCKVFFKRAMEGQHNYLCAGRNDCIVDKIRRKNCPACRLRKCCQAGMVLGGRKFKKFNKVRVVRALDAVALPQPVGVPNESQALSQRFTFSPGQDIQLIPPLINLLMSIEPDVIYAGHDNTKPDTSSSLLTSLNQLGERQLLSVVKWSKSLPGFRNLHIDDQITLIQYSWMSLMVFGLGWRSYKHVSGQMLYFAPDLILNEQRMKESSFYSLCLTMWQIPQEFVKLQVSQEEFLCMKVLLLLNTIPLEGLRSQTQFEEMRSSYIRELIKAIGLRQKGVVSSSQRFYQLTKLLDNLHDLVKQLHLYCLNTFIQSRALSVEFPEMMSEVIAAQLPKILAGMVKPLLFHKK
Outline: (§1)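 SK-N-MC neuroblastoma cells stably expressing human PR-A or PR-B plus MMTV-LUC reporter, treated 24 h with test compound (0.01 nmol/l–[…]). Antagonist mode used co-treatment with 0.1 nmol/l promegestone; luciferase in lysates read as RLU, expressed as % efficacy and IC50/EC50.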

[2] = Metabolic stability in rat liver microsomes; assay type: in vitro ADME; settings: for Predicted clearance [l/h/kg] Rat: well-stirred model
Outline: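 Liver microsomes (solution at 0.5 mg/ml protein before cofactor addition) with 1 μM compound (final) and an NADPH-generating system at 37 °C, 100 mM phosphate pH 7.4, were sampled at 6 time points (2-60 min), methanol-quenched and analysed by LC-MS/MS. Half-life gave intrinsic clearance, and Fmax assumed 100% absorption and purely microsomal first pass.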

[3] = Metabolic stability in human liver microsomes; assay type: in vitro ADME; settings: for Predicted clearance [l/h/kg] Human: 1 μM, well-stirred model
Outline: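 Human liver microsomes (0.5 mg/ml protein) were incubated with compound at 1 μM final and an NADPH-generating system in 100 mM phosphate pH 7.4 at 37 °C. Six samples (2–60 min) were methanol-quenched and measured by LC-MS/MS. Degradation half-life gave intrinsic clearance; Fmax assumed 100% absorption and first pass equal to microsomal metabolism.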

[4] = Solubility in aqueous medium at pH 7.4; assay type: physicochemical; settings: for solubility (in words): aqueous medium under physiological conditions; for solubility: aqueous medium, pH 7.4, aqueous buffer
Text: In addition, some compounds have an unusually good solubility, for this active ingredient class, in aqueous medium under physiological conditions (Table 2).

[5] = biological target: T2, human progesterone receptor B (Homo sapiens, UniProt P06401); test: Progesterone receptor-antagonistic action in stably transfected SK-N-MC cells with MMTV-LUC reporter (PR-B); assay type: cell-based; settings: antagonistic potency against 0.1 nmol/l promegestone, 24 hours, luciferase
T2 construct: expressed in transfected cells; host or cells: SK-N-MC human neuroblastoma cells, stably transfected with pRChPR-B-neo and pMMTV-LUC
T2 sequence (P06401 1-933): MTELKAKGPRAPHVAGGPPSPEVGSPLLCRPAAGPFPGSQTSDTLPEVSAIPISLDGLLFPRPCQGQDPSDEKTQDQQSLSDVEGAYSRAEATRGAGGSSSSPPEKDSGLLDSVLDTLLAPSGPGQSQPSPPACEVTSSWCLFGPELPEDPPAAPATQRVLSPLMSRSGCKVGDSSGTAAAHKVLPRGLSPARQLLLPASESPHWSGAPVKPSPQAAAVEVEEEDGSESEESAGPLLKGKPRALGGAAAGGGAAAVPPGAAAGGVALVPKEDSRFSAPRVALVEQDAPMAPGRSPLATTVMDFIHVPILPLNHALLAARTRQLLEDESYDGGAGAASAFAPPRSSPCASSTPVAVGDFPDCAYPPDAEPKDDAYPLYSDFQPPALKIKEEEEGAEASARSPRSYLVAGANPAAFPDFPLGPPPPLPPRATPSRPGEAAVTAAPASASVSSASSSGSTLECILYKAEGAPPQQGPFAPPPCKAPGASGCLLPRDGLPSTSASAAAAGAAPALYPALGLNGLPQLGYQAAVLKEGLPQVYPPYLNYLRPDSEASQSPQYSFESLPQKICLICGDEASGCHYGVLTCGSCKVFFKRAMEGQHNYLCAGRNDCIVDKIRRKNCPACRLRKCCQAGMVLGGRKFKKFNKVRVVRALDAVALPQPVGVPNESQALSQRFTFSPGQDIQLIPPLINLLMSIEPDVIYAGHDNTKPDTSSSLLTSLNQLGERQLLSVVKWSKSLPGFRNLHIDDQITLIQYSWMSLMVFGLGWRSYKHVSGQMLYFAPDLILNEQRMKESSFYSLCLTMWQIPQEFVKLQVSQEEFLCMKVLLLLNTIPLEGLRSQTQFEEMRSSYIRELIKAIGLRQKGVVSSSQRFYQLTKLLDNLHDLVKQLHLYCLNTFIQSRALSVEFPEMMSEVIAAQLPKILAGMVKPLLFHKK
Outline: as §1

[6] = compared to the compounds of the invention; cited from earlier work
[7] = compared to the compounds of the invention; cited from earlier work; remark: listed apart in the source

| SMILES | Abortion rate [%] (pregnant rats; daily dose 0.5 mg/kg p.o.) | Abortion rate [%] (pregnant rats; daily dose 1.5 mg/kg p.o.) | Abortion rate [%] (pregnant rats; daily dose 5.0 mg/kg p.o.) | IC50 [1] [nM] | Predicted Fmax [%] (maximum oral bioavailability) Rat [2] | Predicted clearance [l/h/kg] Rat [2] [L/h/kg] | Predicted Fmax [%] (maximum oral bioavailability) Human [3] | Predicted clearance [l/h/kg] Human [3] [L/h/kg] | solubility (in words) [4] | solubility [4] [µg/mL] | IC50 [5] [nM] | water solubility (in words) [6] | in vivo half-life (in words) [7] |
| --- | --- | --- | --- | --- | --- | --- | --- | --- | --- | --- | --- | --- | --- |
| C[C@]12C[C@H](c3ccc(/C=C/c4ccc(C(=O)O)cc4)cc3)C3=C4CCC(=O)C=C4CC[C@H]3[C@@H]1CC[C@@]2(O)C(F)(F)C(F)(F)F [Example 29, 4-{(E)-2-[4-((8S,11R,13S,14S,17S)-17-hydroxy-13-methyl-3-oxo-17-pentafluoroethyl-2,3,6,7,8,11,12,13,14,15,16,17-dodecahydro-1H-cyclopenta[a]phenanthren-11-yl)phenyl]vinyl}benzoic acid] | 0 | 16.7 | 100.0 | 0.08 | 100 | 0.0 | 94 | 0.08 | improved | 102 (≈ 166 µM) | 0.09 |  |  |
| CC(=O)c1ccc(C2CC3(C)C(CCC3(O)C(F)(F)C(F)(F)F)C3CCC4=CC(=O)CCC4=C23)cc1 (stereo not drawn) [11-β-(4-acetylphenyl)-20,20,21,21,21-pentafluoro-17-hydroxynor-17-pregna-4,9-dien-3-one] |  |  |  |  |  |  |  |  |  |  |  | poor | relatively short |
| C[C@]12C[C@H](c3ccc(/C=C/C=C/C(=O)O)cc3)C3=C4CCC(=O)C=C4CC[C@H]3[C@@H]1CC[C@@]2(O)C(F)(F)C(F)(F)F [Example 17, (2E,4E)-5-[4-((8S,11R,13S,14S,17S)-17-hydroxy-13-methyl-3-oxo-17-pentafluoroethyl-2,3,6,7,8,11,12,13,14,15,16,17-dodecahydro-1H-cyclopenta[a]phenanthren-11-yl)phenyl]penta-2,4-dienoic acid] | 0 | 16.7 | 100.0 | 0.1 | 91 | 0.4 | 33 | 0.89 | improved | > 188 | 0.7 |  |  |
